From ChEMBL document CHEMBL1147782, “Peptide inhibitors of dengue virus NS3 protease. Part 2: SAR study of tetrapeptide aldehyde inhibitors” (Bioorg Med Chem Lett, 2006)
Square brackets hold non-standard residues; d marks the D form. Peptide text beside a SMILES is read from it. * marks the point of attachment. Phe(4-guanidino) = N=C(N)Nc1ccc(C[C@H](N)C(=O)O)cc1; Bip = N[C@@H](Cc1ccc(-c2ccccc2)cc1)C(=O)O; Phe(4-CN) = N#Cc1ccc(C[C@H](N)C(=O)O)cc1; Phe(4-Cl) = N[C@@H](Cc1ccc(Cl)cc1)C(=O)O; Phe(4-Me) = Cc1ccc(C[C@H](N)C(=O)O)cc1; NMeR = CN[C@@H](CCCNC(=N)N)C(=O)O; hPhe = N[C@@H](CCc1ccccc1)C(=O)O; NMeK = CN[C@@H](CCCCN)C(=O)O; NMeNle = CCCC[C@H](NC)C(=O)O; Phg = N[C@H](C(=O)O)c1ccccc1; dNle = CCCC[C@@H](N)C(=O)O; Nle = CCCC[C@H](N)C(=O)O; Bz = O=C(c1ccccc1)*

Each compound was assayed against Genome polyprotein (dengue virus type 2, UniProt P29990) (assay: Inhibitory activity against dengue 2 NS3 protease fused via a linker to region of NS2B).
Sequence of Genome polyprotein (P29990 1346-1475 limits assumed): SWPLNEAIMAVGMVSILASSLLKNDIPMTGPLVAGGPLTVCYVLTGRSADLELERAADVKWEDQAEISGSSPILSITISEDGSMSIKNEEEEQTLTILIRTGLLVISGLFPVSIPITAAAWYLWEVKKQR
Sequence of Genome polyprotein (P29990 1476-2093 limits assumed): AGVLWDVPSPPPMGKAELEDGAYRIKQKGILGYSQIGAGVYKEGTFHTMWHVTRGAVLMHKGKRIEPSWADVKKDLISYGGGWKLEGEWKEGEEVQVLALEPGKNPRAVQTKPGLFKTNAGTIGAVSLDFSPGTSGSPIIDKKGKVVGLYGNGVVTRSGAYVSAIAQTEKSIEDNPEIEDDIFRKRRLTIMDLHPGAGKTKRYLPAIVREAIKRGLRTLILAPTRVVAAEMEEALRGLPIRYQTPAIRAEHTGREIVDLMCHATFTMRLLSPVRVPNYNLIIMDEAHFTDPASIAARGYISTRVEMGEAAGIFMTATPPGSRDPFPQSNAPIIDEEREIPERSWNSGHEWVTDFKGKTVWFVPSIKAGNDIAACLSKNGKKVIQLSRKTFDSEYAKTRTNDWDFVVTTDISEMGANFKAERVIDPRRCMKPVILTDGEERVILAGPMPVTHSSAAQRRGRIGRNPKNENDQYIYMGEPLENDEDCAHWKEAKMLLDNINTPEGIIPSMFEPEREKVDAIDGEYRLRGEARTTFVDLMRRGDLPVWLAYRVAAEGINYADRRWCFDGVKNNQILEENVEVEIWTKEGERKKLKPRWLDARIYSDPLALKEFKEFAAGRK

Compound | Ki [µM]
C[C@H](NC(=O)c1ccccc1)C(=O)N[C@@H](CCCCN)C(=O)N[C@@H](CCCN=C(N)N)C(=O)N[C@H](C=O)CCCN=C(N)N (Bz-AKRR-aldehyde) | 5.3
NC(N)=NCCC[C@@H](C=O)NC(=O)[C@H](CCCN=C(N)N)NC(=O)c1ccccc1 (Bz-Arg-Arg-aldehyde) | 12
NCCCC[C@H](NC(=O)[C@H](Cc1ccccc1)NC(=O)c1ccccc1)C(=O)N[C@@H](CCCN=C(N)N)C(=O)N[C@H](C=O)CCCN=C(N)N (Bz-FKRR-aldehyde) | 6.8
NCCCC[C@H](NC(=O)c1ccccc1)C(=O)N[C@@H](CCCN=C(N)N)C(=O)N[C@H](C=O)CCCN=C(N)N (Bz-Lys-Arg-Arg-aldehyde) | 1.5
CCCC[C@@H](C(=O)N[C@@H](CCCCN)C(=O)N[C@@H](CCCN=C(N)N)C(=O)N[C@H](C=O)CCCN=C(N)N)N(C)C(=O)c1ccccc1 (Bz-[NMeNle]KRR-aldehyde) | 43.7
CCCC[C@H](NC(=O)c1ccccc1)C(=O)N[C@@H](C)C(=O)N[C@@H](CCCN=C(N)N)C(=O)N[C@H](C=O)CCCN=C(N)N (Bz-[Nle]ARR-aldehyde) | 22.1
CCCC[C@H](NC(=O)c1ccccc1)C(=O)N[C@@H](Cc1ccccc1)C(=O)N[C@@H](CCCN=C(N)N)C(=O)N[C@H](C=O)CCCN=C(N)N (Bz-[Nle]FRR-aldehyde) | 15.8
CCCC[C@H](NC(=O)c1ccccc1)C(=O)N[C@@H](CCCCN)C(=O)N[C@@H](C)C(=O)N[C@H](C=O)CCCN=C(N)N (Bz-[Nle]KAR-aldehyde) | > 500
CCCC[C@H](NC(=O)c1ccccc1)C(=O)N[C@@H](CCCCN)C(=O)N[C@@H](Cc1ccccc1)C(=O)N[C@H](C=O)CCCNC(=N)N (Bz-[Nle]KFR-aldehyde) | 40.7
CCCC[C@H](NC(=O)c1ccccc1)C(=O)N[C@@H](CCCCN)C(=O)N[C@@H](CCCCN)C(=O)N[C@H](C=O)CCCNC(=N)N (Bz-[Nle]KKR-aldehyde) | 41.3
CCCC[C@H](NC(=O)c1ccccc1)C(=O)N[C@@H](CCCCN)C(=O)N1CCC[C@H]1C(=O)N[C@H](C=O)CCCN=C(N)N (Bz-[Nle]KPR-aldehyde) | 109
CCCC[C@H](NC(=O)c1ccccc1)C(=O)N[C@@H](CCCCN)C(=O)N[C@@H](CCCN=C(N)N)C(=O)N[C@@H](C)C=O (Bz-[Nle]KRA-aldehyde) | 193
CCCC[C@H](NC(=O)c1ccccc1)C(=O)N[C@@H](CCCCN)C(=O)N[C@@H](CCCN=C(N)N)C(=O)N[C@H](C=O)Cc1ccccc1 (Bz-[Nle]KRF-aldehyde) | 15.9
CCCC[C@H](NC(=O)c1ccccc1)C(=O)N[C@@H](CCCCN)C(=O)N[C@@H](CCCN=C(N)N)C(=O)N[C@H](C=O)CCCCN (Bz-[Nle]KRK-aldehyde) | 20.5
CCCC[C@H](NC(=O)c1ccccc1)C(=O)N[C@@H](CCCCN)C(=O)N[C@@H](CCCNC(=N)N)C(=O)N[C@H](C=O)CCCNC(=N)N (Bz-[Nle]KRR-aldehyde) | 5.8
CCCC[C@H](NC(=O)c1ccccc1)C(=O)N[C@@H](CCCCN)C(=O)N[C@@H](CCCN=C(N)N)C(=O)N[C@H](C=O)Cc1c[nH]c2ccccc12 (Bz-[Nle]KRW-aldehyde) | 7.5
CCCC[C@H](NC(=O)c1ccccc1)C(=O)N[C@@H](CCCCN)C(=O)N[C@@H](CCCN=C(N)N)C(=O)N[C@H](C=O)Cc1ccc(-c2ccccc2)cc1 (Bz-[Nle]KR[Bip]-aldehyde) | 11.6
CCCC[C@H](NC(=O)c1ccccc1)C(=O)N[C@@H](CCCCN)C(=O)N[C@@H](CCCN=C(N)N)C(=O)N[C@H](C=O)Cc1ccc(C#N)cc1 (Bz-[Nle]KR[Phe(4-CN)]-aldehyde) | 18.6
CCCC[C@H](NC(=O)c1ccccc1)C(=O)N[C@@H](CCCCN)C(=O)N[C@@H](CCCN=C(N)N)C(=O)N[C@H](C=O)Cc1ccc(Cl)cc1 (Bz-[Nle]KR[Phe(4-Cl)]-aldehyde) | 138
CCCC[C@H](NC(=O)c1ccccc1)C(=O)N[C@@H](CCCCN)C(=O)N[C@@H](CCCN=C(N)N)C(=O)N[C@H](C=O)Cc1ccc(C)cc1 (Bz-[Nle]KR[Phe(4-Me)]-aldehyde) | 6
CCCC[C@H](NC(=O)c1ccccc1)C(=O)N[C@@H](CCCCN)C(=O)N[C@@H](CCCNC(=N)N)C(=O)N[C@H](C=O)Cc1ccc(NC(=N)N)cc1 (Bz-[Nle]KR[Phe(4-guanidino)]-aldehyde) | 2.8
CCCC[C@H](NC(=O)c1ccccc1)C(=O)N[C@@H](CCCCN)C(=O)N[C@@H](CCCN=C(N)N)C(=O)N[C@H](C=O)c1ccccc1 (Bz-[Nle]KR[Phg]-aldehyde) | 33
CCCC[C@H](NC(=O)c1ccccc1)C(=O)N[C@@H](CCCCN)C(=O)N[C@@H](CCCN=C(N)N)C(=O)N[C@@H](C=O)CCCN=C(N)N (Bz-[Nle]KR[dR]-aldehyde) | 51
CCCC[C@H](NC(=O)c1ccccc1)C(=O)N[C@@H](CCCCN)C(=O)N[C@@H](CCCN=C(N)N)C(=O)N[C@H](C=O)CCc1ccccc1 (Bz-[Nle]KR[hPhe]-aldehyde) | > 500
CCCC[C@H](NC(=O)c1ccccc1)C(=O)N[C@@H](CCCCN)C(=O)N(C)[C@@H](CCCN=C(N)N)C(=O)N[C@H](C=O)CCCN=C(N)N (Bz-[Nle]K[NMeR]R-aldehyde) | 47.4
CCCC[C@H](NC(=O)c1ccccc1)C(=O)N[C@@H](CCCCN)C(=O)N[C@H](CCCN=C(N)N)C(=O)N[C@H](C=O)CCCN=C(N)N (Bz-[Nle]K[dR]R-aldehyde) | 115
CCCC[C@H](NC(=O)c1ccccc1)C(=O)N1CCC[C@H]1C(=O)N[C@@H](CCCN=C(N)N)C(=O)N[C@H](C=O)CCCN=C(N)N (Bz-[Nle]PRR-aldehyde) | 61.4
CCCC[C@H](NC(=O)c1ccccc1)C(=O)N(C)[C@@H](CCCCN)C(=O)N[C@@H](CCCN=C(N)N)C(=O)N[C@H](C=O)CCCN=C(N)N (Bz-[Nle][NMeK]RR-aldehyde) | 113
CCCC[C@H](NC(=O)c1ccccc1)C(=O)N[C@H](CCCCN)C(=O)N[C@@H](CCCN=C(N)N)C(=O)N[C@H](C=O)CCCN=C(N)N (Bz-[Nle][dK]RR-aldehyde) | 28.6
CCCC[C@@H](NC(=O)c1ccccc1)C(=O)N[C@@H](CCCCN)C(=O)N[C@@H](CCCN=C(N)N)C(=O)N[C@H](C=O)CCCN=C(N)N (Bz-[dNle]KRR-aldehyde) | 9.4
